According to patent US12539292B2, “BRM targeting compounds and associated methods of use” (Arvinas Operations, Inc., priority 2018, dated 2026):

Molecular target: T1, BRM (Homo sapiens, UniProt P51531)
T1 construct: In-Cell Western Screen of BRM Degradation in SW1573 Cells; endogenous in cells; host or cells: SW1573
Experiment: In-cell Western screen of BRM degradation in SW1573 cells (Dmax and DC50)
Format: cell-based
Conditions: BRM degradation, SW1573 cells; for DC50: read-out: DC50; for Dmax: tested at the top concentration of between 0.3 and 10 μM, read-out: Dmax (%) (% degraded)
How it was run: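 SW1573 cells were treated with compound overnight (18-20 h; final DMSO 0.1%), then fixed in 4% PFA, permeabilized with Triton X-100 and blocked. BRM was detected by in-cell Western using 800 nm anti-rabbit and 680 nm anti-mouse secondaries, and Dmax and DC50 were derived from the LI-COR Odyssey signal.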

T1 sequence (P51531 whole entry): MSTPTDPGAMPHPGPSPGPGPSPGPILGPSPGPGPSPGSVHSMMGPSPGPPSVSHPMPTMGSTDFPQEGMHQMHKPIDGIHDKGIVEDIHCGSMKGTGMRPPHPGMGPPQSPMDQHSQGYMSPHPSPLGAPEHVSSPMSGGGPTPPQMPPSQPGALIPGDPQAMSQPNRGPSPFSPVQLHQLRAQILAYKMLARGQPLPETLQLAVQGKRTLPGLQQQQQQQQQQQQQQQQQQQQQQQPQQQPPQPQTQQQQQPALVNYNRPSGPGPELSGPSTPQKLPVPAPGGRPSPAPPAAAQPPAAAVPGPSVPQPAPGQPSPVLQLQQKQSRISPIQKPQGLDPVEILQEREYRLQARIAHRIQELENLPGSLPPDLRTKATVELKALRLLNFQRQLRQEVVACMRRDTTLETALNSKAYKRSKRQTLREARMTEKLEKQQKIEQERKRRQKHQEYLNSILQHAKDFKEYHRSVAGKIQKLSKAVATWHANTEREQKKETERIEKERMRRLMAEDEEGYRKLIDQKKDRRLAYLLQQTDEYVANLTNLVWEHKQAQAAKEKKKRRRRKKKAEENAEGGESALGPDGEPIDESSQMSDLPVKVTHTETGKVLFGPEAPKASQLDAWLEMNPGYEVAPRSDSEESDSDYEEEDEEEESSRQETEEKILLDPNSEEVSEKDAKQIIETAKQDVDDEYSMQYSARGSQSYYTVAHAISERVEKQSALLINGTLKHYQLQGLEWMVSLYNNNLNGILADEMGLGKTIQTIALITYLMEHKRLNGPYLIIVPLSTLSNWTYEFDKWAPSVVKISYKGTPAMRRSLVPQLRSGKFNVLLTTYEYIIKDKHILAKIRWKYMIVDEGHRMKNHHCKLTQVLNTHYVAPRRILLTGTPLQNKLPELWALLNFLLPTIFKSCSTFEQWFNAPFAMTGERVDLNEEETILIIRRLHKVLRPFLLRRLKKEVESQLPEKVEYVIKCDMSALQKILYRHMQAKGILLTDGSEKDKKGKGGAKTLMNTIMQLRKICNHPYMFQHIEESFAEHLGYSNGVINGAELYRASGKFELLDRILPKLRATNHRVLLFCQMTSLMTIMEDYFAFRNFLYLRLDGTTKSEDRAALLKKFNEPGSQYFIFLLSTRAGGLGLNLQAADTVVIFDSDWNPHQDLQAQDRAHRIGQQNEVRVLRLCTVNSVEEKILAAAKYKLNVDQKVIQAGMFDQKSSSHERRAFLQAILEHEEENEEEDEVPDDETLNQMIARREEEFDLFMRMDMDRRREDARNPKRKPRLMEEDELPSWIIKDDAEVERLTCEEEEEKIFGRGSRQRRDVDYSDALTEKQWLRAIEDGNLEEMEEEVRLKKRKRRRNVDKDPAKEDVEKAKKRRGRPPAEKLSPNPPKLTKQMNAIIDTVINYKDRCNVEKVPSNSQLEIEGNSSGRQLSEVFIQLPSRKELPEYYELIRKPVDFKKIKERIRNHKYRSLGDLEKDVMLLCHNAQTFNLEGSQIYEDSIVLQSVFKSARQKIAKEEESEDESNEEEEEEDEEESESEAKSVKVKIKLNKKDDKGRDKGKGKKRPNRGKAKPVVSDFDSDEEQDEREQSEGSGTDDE

Row | Compound | DC50 | Dmax
1 | COc1cc(-c2scnc2C)ccc1[C@H](C)NC(=O)[C@@H]1C[C@@H](O)CN1C(=O)[C@H](c1cc(OCCN2CCC(O[C@H]3C[C@H](Oc4cc(N5C6CCC5CN(c5cc(-c7ccccc7O)nnc5N)C6)ccn4)C3)CC2)no1)C(C)C [compound 201, (2S,4R)-1-((2S)-2-(3-(2-(4-((1r,3S)-3-((4-(3-(3-amino-6-(2-hydroxyphenyl)pyridazin-4-yl)-3,8-diazabicyclo[3.2.1]octan-8-yl)pyridin-2-yl)oxy)cyclobutoxy)piperidin-1-yl)ethoxy)isoxazol-5-yl)-3-methylbutanoyl)-4-hydroxy-N-((S)-1-(2-methoxy-4-(4-methylthiazol-5-yl)phenyl)ethyl)pyrrolidine-2-carboxamide] | 10 to 30 nM | > 75%
2 | COc1cc(-c2scnc2C)ccc1[C@H](C)NC(=O)[C@@H]1C[C@@H](O)CN1C(=O)[C@@H](c1cc(OCCN2CCC(O[C@H]3C[C@H](Oc4cc(N5C6CCC5CN(c5cc(-c7ccccc7O)nnc5N)C6)ccn4)C3)CC2)no1)C(C)C [compound 202, (2S,4R)-1-((2R)-2-(3-(2-(4-((1r,3R)-3-((4-(3-(3-amino-6-(2-hydroxyphenyl)pyridazin-4-yl)-3,8-diazabicyclo[3.2.1]octan-8-yl)pyridin-2-yl)oxy)cyclobutoxy)piperidin-1-yl)ethoxy)isoxazol-5-yl)-3-methylbutanoyl)-4-hydroxy-N-((S)-1-(2-methoxy-4-(4-methylthiazol-5-yl)phenyl)ethyl)pyrrolidine-2-carboxamide] | < 2.5 nM | > 75%
3 | CC(C)[C@@H](C(=O)N1C[C@H](O)C[C@H]1C(=O)N[C@@H](C)c1ccc(C#N)cc1)c1cc(OCCN2CCC(O[C@H]3C[C@H](Oc4cc(N5C6CCC5CN(c5cc(-c7ccccc7O)nnc5N)C6)ccn4)C3)CC2)no1 [compound 203, (2S,4R)-1-((2R)-2-(3-(2-(4-((1r,3R)-3-((4-(3-(3-amino-6-(2-hydroxyphenyl)pyridazin-4-yl)-3,8-diazabicyclo[3.2.1]octan-8-yl)pyridin-2-yl)oxy)cyclobutoxy)piperidin-1-yl)ethoxy)isoxazol-5-yl)-3-methylbutanoyl)-N-((S)-1-(4-cyanophenyl)ethyl)-4-hydroxypyrrolidine-2-carboxamide] | < 2.5 nM | > 75%
4 | CC(C)[C@H](C(=O)N1C[C@H](O)C[C@H]1C(=O)N[C@@H](C)c1ccc(C#N)cc1)c1cc(OCCN2CCC(O[C@H]3C[C@H](Oc4cc(N5C6CCC5CN(c5cc(-c7ccccc7O)nnc5N)C6)ccn4)C3)CC2)no1 [compound 204, (2S,4R)-1-((2S)-2-(3-(2-(4-((1r,3S)-3-((4-(3-(3-amino-6-(2-hydroxyphenyl)pyridazin-4-yl)-3,8-diazabicyclo[3.2.1]octan-8-yl)pyridin-2-yl)oxy)cyclobutoxy)piperidin-1-yl)ethoxy)isoxazol-5-yl)-3-methylbutanoyl)-N-((S)-1-(4-cyanophenyl)ethyl)-4-hydroxypyrrolidine-2-carboxamide] | > 30 nM | > 75%
5 | Cc1ncsc1-c1ccc([C@H](C)NC(=O)[C@@H]2C[C@@H](O)CN2C(=O)[C@H](c2cc(OCCN3CCN(CCCCN4CCOC5(CCN(c6cc(-c7ccccc7O)nnc6N)CC5)C4)CC3)no2)C(C)C)cc1 [compound 205, (2S,4R)-1-((S)-2-(3-(2-(4-(4-(9-(3-amino-6-(2-hydroxyphenyl)pyridazin-4-yl)-1-oxa-4,9-diazaspiro[5.5]undecan-4-yl)butyl)piperazin-1-yl)ethoxy)isoxazol-5-yl)-3-methylbutanoyl)-4-hydroxy-N-((S)-1-(4-(4-methylthiazol-5-yl)phenyl)ethyl)pyrrolidine-2-carboxamide] | > 30 nM | > 75%
6 | Cc1ncsc1-c1ccc([C@H](C)NC(=O)[C@@H]2C[C@@H](O)CN2C(=O)[C@H](c2cc(OC/C=C/c3ccc(O[C@H]4C[C@H](Oc5cc(N6C7CCC6CN(c6cc(-c8ccccc8O)nnc6N)C7)ccn5)C4)cn3)no2)C(C)C)cn1 [compound 206, (2S,4R)-1-((2S)-2-(3-(((E)-3-(5-((1r,3S)-3-((4-(3-(3-amino-6-(2-hydroxyphenyl)pyridazin-4-yl)-3,8-diazabicyclo[3.2.1]octan-8-yl)pyridin-2-yl)oxy)cyclobutoxy)pyridin-2-yl)allyl)oxy)isoxazol-5-yl)-3-methylbutanoyl)-4-hydroxy-N-((S)-1-(6-(4-methylthiazol-5-yl)pyridin-3-yl)ethyl)pyrrolidine-2-carboxamide] | 10 to 30 nM | > 75%
7 | Cc1ncsc1-c1ccc([C@H](C)NC(=O)[C@@H]2C[C@@H](O)CN2C(=O)[C@@H](c2cc(OC/C=C/c3ccc(O[C@H]4C[C@H](Oc5cc(N6C7CCC6CN(c6cc(-c8ccccc8O)nnc6N)C7)ccn5)C4)cn3)no2)C(C)C)cn1 [compound 207, (2S,4R)-1-((2R)-2-(3-(((E)-3-(5-((1r,3R)-3-((4-(3-(3-amino-6-(2-hydroxyphenyl)pyridazin-4-yl)-3,8-diazabicyclo[3.2.1]octan-8-yl)pyridin-2-yl)oxy)cyclobutoxy)pyridin-2-yl)allyl)oxy)isoxazol-5-yl)-3-methylbutanoyl)-4-hydroxy-N-((S)-1-(6-(4-methylthiazol-5-yl)pyridin-3-yl)ethyl)pyrrolidine-2-carboxamide] | < 2.5 nM | > 75%
8 | Cc1ncsc1-c1ccc([C@H](C)NC(=O)[C@@H]2C[C@@H](O)CN2C(=O)[C@H](c2onc(OCCN3CCC(O[C@H]4C[C@H](Oc5cc(N6C7CCC6CN(c6cc(-c8ccccc8O)nnc6N)C7)ccn5)C4)CC3)c2F)C(C)C)cc1 [compound 208, (2S,4R)-1-((2S)-2-(3-(2-(4-((1r,3S)-3-((4-(3-(3-amino-6-(2-hydroxyphenyl)pyridazin-4-yl)-3,8-diazabicyclo[3.2.1]octan-8-yl)pyridin-2-yl)oxy)cyclobutoxy)piperidin-1-yl)ethoxy)-4-fluoroisoxazol-5-yl)-3-methylbutanoyl)-4-hydroxy-N-((S)-1-(4-(4-methylthiazol-5-yl)phenyl)ethyl)pyrrolidine-2-carboxamide] | > 30 nM | > 75%
9 | Cc1ncsc1-c1ccc([C@H](C)NC(=O)[C@@H]2C[C@@H](O)CN2C(=O)[C@@H](c2onc(OCCN3CCC(O[C@H]4C[C@H](Oc5cc(N6C7CCC6CN(c6cc(-c8ccccc8O)nnc6N)C7)ccn5)C4)CC3)c2F)C(C)C)cc1 [compound 209, (2S,4R)-1-((2R)-2-(3-(2-(4-((1r,3R)-3-((4-(3-(3-amino-6-(2-hydroxyphenyl)pyridazin-4-yl)-3,8-diazabicyclo[3.2.1]octan-8-yl)pyridin-2-yl)oxy)cyclobutoxy)piperidin-1-yl)ethoxy)-4-fluoroisoxazol-5-yl)-3-methylbutanoyl)-4-hydroxy-N-((S)-1-(4-(4-methylthiazol-5-yl)phenyl)ethyl)pyrrolidine-2-carboxamide] | < 2.5 nM | > 75%
10 | Cc1ncsc1-c1ccc(CNC(=O)[C@@H]2C[C@@H](O)CN2C(=O)[C@@H](c2cc(OCCN3CCN(CCOc4cc(N5C6CCC5CN(c5cc(-c7ccccc7O)nnc5N)C6)ccn4)C[C@@H]3C)no2)C(C)C)cc1 [compound 210, (2S,4R)-1-((2R)-2-(3-(2-((2S)-4-(2-((4-(3-(3-amino-6-(2-hydroxyphenyl)pyridazin-4-yl)-3,8-diazabicyclo[3.2.1]octan-8-yl)pyridin-2-yl)oxy)ethyl)-2-methylpiperazin-1-yl)ethoxy)isoxazol-5-yl)-3-methylbutanoyl)-4-hydroxy-N-(4-(4-methylthiazol-5-yl)benzyl)pyrrolidine-2-carboxamide] | < 2.5 nM | > 75%
11 | CC(C)[C@@H](C(=O)N1C[C@H](O)C[C@H]1C(=O)N[C@@H](C)c1ccc(-c2scnc2CO)cc1)c1cc(OCCN2CCC(O[C@H]3C[C@H](Oc4cc(N5C6CCC5CN(c5cc(-c7ccccc7O)nnc5N)C6)ccn4)C3)CC2)no1 [compound 211, (2S,4R)-1-((2R)-2-(3-(2-(4-((1r,3R)-3-((4-(3-(3-amino-6-(2-hydroxyphenyl)pyridazin-4-yl)-3,8-diazabicyclo[3.2.1]octan-8-yl)pyridin-2-yl)oxy)cyclobutoxy)piperidin-1-yl)ethoxy)isoxazol-5-yl)-3-methylbutanoyl)-4-hydroxy-N-((S)-1-(4-(4-(hydroxymethyl)thiazol-5-yl)phenyl)ethyl)pyrrolidine-2-carboxamide] | < 2.5 nM | > 75%
12 | Cc1ncoc1-c1ccc([C@H](C)NC(=O)[C@@H]2C[C@@H](O)CN2C(=O)[C@H](c2cc(OCCN3CCC(O[C@H]4C[C@H](Oc5cc(N6C7CCC6CN(c6cc(-c8ccccc8O)nnc6N)C7)ccn5)C4)CC3)no2)C(C)C)cc1 [compound 212, (2S,4R)-1-((2S)-2-(3-(2-(4-((1r,3S)-3-((4-(3-(3-amino-6-(2-hydroxyphenyl)pyridazin-4-yl)-3,8-diazabicyclo[3.2.1]octan-8-yl)pyridin-2-yl)oxy)cyclobutoxy)piperidin-1-yl)ethoxy)isoxazol-5-yl)-3-methylbutanoyl)-4-hydroxy-N-((S)-1-(4-(4-methyloxazol-5-yl)phenyl)ethyl)pyrrolidine-2-carboxamide] | > 30 nM | > 75%
13 | Cc1ncoc1-c1ccc([C@H](C)NC(=O)[C@@H]2C[C@@H](O)CN2C(=O)[C@@H](c2cc(OCCN3CCC(O[C@H]4C[C@H](Oc5cc(N6C7CCC6CN(c6cc(-c8ccccc8O)nnc6N)C7)ccn5)C4)CC3)no2)C(C)C)cc1 [compound 213, (2S,4R)-1-((2R)-2-(3-(2-(4-((1r,3R)-3-((4-(3-(3-amino-6-(2-hydroxyphenyl)pyridazin-4-yl)-3,8-diazabicyclo[3.2.1]octan-8-yl)pyridin-2-yl)oxy)cyclobutoxy)piperidin-1-yl)ethoxy)isoxazol-5-yl)-3-methylbutanoyl)-4-hydroxy-N-((S)-1-(4-(4-methyloxazol-5-yl)phenyl)ethyl)pyrrolidine-2-carboxamide] | < 2.5 nM | > 75%
